Consider 3 compounds from ChEMBL document CHEMBL3351387, “Bioisosteric replacement of an acylureido moiety attached to an indolin-2-one scaffold with a malonamido or a 2/4-pyridinoylamido moiety produces a selectively potent Aurora-B inhibitor” (Eur J Med Chem, 2014).

Series [1] concerns the target T1, Receptor-type tyrosine-protein kinase FLT3 (Homo sapiens, UniProt P36888).
T1 sequence (P36888 whole entry): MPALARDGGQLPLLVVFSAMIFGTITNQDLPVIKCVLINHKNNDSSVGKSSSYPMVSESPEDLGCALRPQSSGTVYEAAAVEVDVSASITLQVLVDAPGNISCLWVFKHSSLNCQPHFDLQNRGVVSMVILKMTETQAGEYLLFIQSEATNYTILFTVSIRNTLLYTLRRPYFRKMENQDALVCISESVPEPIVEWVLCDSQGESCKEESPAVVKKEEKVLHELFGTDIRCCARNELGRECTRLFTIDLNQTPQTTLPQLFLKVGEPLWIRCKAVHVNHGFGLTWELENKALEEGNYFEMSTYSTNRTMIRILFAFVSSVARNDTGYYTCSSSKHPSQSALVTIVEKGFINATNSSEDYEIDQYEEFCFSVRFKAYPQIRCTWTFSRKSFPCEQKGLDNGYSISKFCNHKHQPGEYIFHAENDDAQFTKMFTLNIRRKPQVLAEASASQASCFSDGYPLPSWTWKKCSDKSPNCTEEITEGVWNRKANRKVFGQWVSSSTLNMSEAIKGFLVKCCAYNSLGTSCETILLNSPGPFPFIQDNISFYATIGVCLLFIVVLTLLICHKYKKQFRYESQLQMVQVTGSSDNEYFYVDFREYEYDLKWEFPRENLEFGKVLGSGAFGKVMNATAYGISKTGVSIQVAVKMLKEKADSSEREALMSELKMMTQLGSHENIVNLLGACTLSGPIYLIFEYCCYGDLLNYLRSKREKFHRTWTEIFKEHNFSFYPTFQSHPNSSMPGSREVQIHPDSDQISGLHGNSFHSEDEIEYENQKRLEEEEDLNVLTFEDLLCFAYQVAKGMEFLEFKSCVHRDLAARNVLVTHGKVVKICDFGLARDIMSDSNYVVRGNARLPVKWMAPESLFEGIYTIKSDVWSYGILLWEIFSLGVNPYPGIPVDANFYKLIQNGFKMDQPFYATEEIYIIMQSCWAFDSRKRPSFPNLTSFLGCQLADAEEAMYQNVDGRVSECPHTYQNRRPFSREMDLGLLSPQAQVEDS
The series is described as follows: Inhibition of Flt3 (unknown origin) using EAIYAAPFAKKK substrate by radioisotope-based P81 filter-binding assay.

The target in a further series is T2, Aurora kinase C (Homo sapiens, UniProt Q9UQB9).
T2 sequence (Q9UQB9 whole entry): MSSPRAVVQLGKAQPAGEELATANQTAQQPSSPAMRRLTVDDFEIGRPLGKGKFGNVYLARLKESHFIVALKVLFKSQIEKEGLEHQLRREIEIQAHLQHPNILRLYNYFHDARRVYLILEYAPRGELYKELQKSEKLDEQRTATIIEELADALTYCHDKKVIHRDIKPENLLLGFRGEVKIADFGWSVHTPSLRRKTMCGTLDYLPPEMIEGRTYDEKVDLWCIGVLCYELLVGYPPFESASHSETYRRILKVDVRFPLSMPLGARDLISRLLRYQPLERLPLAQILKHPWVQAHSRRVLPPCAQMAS
Briefly: Inhibition of Aurora C (unknown origin) using H-LRRASLG substrate by radioisotope-based P81 filter-binding assay.

A further series addresses Aurora kinase B (Homo sapiens, UniProt Q96GD4). Briefly: Inhibition of Aurora B (unknown origin) using H-LRRASLG substrate by radioisotope-based P81 filter-binding assay.
In series [2] the target is Platelet-derived growth factor receptor alpha (Homo sapiens, UniProt P16234). The series is described as follows: Inhibition of PDGFRalpha (unknown origin) using poly[Glu:Tyr] (4:1) substrate by radioisotope-based P81 filter-binding assay.
Platelet-derived growth factor receptor alpha, sequence (P16234 whole entry): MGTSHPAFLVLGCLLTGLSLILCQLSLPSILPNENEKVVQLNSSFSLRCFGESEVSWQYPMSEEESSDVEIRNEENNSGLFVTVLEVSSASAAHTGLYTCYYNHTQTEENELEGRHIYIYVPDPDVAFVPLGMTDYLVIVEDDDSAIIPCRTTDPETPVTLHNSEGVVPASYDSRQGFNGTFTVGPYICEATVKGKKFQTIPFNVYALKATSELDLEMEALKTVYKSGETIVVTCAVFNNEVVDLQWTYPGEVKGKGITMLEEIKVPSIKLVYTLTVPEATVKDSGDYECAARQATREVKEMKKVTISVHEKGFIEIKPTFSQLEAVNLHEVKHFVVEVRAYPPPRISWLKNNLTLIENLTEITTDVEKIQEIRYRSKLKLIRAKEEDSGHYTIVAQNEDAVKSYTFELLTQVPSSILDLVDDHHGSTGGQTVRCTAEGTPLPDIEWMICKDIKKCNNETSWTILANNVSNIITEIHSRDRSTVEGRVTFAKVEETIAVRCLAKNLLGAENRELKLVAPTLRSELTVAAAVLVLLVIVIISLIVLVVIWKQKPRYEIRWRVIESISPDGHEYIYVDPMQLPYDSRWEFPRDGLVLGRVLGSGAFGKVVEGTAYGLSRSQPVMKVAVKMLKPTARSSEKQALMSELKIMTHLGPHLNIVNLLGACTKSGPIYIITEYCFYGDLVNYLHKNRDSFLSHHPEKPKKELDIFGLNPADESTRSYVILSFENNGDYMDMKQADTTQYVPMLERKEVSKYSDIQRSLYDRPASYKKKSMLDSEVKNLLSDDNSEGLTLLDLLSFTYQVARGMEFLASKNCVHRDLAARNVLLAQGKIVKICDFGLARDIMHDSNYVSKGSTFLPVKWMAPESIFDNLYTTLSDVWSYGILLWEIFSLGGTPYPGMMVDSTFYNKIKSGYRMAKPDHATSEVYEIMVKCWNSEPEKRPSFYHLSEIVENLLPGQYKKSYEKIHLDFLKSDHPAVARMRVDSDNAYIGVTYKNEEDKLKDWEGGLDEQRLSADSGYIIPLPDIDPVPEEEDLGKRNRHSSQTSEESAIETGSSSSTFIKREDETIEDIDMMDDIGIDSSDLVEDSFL
Series [3] has as its target Platelet-derived growth factor receptor beta (Homo sapiens, UniProt P09619). The series is described as follows: Inhibition of PDGFRbeta (unknown origin) using poly[Glu:Tyr] (4:1) substrate by radioisotope-based P81 filter-binding assay.
A further series concerns the target T3, Aurora kinase A (Homo sapiens, UniProt O14965).
T3 sequence (O14965 whole entry): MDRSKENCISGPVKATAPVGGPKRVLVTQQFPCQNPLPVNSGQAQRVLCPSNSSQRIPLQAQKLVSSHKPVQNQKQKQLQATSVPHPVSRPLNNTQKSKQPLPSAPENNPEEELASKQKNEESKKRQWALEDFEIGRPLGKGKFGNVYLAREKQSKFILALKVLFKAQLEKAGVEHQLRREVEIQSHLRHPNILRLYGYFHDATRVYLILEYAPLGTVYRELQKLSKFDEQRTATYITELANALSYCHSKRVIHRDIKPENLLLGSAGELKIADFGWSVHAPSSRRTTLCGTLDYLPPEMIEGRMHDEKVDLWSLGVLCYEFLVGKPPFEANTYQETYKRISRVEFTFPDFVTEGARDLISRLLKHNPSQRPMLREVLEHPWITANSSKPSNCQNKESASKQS
Briefly: Inhibition of Aurora A (unknown origin) using H-LRRASLG substrate by radioisotope-based P81 filter-binding assay.

The subject of the next series is HepG2. The series is described as follows: Cytotoxicity against human HepG2 cells by SRB assay. It is filed as cell-based. A general note: Sulforhodamine B stains cellular protein and so reports cell mass.
Series [4] concerns the target Hepatocyte growth factor receptor (Homo sapiens, UniProt P08581). Briefly: Inhibition of c-Met (unknown origin) using KKKSPGEYVNIEFG substrate by radioisotope-based P81 filter-binding assay.
Series [5] relates to A549. The series is described as follows: Cytotoxicity against human A549 cells by SRB assay. It counts as cell-based.
Series [6] concerns the target Vascular endothelial growth factor receptor 2 (Homo sapiens, UniProt P35968). Briefly: Inhibition of VEGFR2 (unknown origin) using poly[Glu:Tyr] substrate by radioisotope-based P81 filter-binding assay.
The test system of a further series is Rattus norvegicus. Briefly: AUC (0 to 24 hrs) in rat plasma at 2 mg/kg, iv after 24 hrs by LC-ESI-MS/MS method. It counts as ADME, organism-based. More on the design: time < 24 hr, dose 2 mg/kg, route intravenous. The note with it: in vivo.
A short description of series [7]: Antitumor activity against human HuH7 cells xenografted in po dosed SCID mouse assessed as inhibition of tumor growth at 2.5 mg/kg, iv qd for 14 days measured on day 9. It counts as functional. The note with it: Huh-7.
The subject of series [8] is A549. Briefly: Anti-invasive activity against human A549 cells assessed as inhibition of cell invasion by transwell invasion assay.
The nature of series [9]: Plasma concentration rat at 2 mg/kg, iv after 5 mins by LC-ESI-MS/MS method. The arrangement: dose 2 mg/kg, route intravenous. It is filed as ADME, organism-based.
The test system of another series is Vero. The series is described as follows: Cytotoxicity against african green monkey Vero cells. It is filed as cell-based. The settings on record: chlorocebus sabaeus.
For a further series, the target named is Cytochrome P450 2C9 (Homo sapiens, UniProt P11712). Briefly: Inhibition of CYP2C9 (unknown origin) using Vivid OOMR substrate. It is filed as ADME.
Cytochrome P450 2C9, sequence (P11712 whole entry): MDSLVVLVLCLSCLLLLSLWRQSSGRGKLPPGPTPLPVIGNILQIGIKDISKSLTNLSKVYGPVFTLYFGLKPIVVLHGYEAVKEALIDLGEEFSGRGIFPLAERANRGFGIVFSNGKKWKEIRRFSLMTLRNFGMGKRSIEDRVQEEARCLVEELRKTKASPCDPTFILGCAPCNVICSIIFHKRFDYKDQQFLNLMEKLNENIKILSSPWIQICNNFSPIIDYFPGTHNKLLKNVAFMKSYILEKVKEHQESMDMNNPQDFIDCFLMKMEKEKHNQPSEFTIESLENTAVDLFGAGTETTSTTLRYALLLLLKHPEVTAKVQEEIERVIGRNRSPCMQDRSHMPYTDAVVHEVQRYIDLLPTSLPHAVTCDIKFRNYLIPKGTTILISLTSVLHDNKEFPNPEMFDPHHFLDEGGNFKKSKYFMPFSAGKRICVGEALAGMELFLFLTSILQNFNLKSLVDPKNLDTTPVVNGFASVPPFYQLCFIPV
Series [10] can be described thus: Plasma concentration rat at 2 mg/kg, iv after 24 hrs by LC-ESI-MS/MS method. It is filed as ADME, organism-based. More on the design: dose 2 mg/kg, route intravenous.
In a further series the target is Cytochrome P450 2C19 (Homo sapiens, UniProt P33261). Briefly: Inhibition of CYP2C19 (unknown origin) using 3-Cyano-7-ethoxycoumarin substrate. It counts as ADME.
Cytochrome P450 2C19, sequence (P33261 whole entry): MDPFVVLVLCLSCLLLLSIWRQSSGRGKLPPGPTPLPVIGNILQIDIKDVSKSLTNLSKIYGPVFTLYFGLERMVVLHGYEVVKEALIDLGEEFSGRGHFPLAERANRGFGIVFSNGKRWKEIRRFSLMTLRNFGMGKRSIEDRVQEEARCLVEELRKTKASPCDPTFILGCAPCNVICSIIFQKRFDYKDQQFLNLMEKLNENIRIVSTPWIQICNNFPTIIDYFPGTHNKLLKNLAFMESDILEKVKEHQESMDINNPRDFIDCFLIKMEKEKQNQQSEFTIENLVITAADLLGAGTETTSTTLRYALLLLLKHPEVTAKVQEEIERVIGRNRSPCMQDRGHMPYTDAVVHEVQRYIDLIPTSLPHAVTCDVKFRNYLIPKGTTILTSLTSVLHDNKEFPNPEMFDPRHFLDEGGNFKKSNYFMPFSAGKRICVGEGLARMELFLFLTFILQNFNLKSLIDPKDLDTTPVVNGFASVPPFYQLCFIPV
A short description of series [11]: Clearance in rat at 2 mg/kg, iv after 24 hrs by LC-ESI-MS/MS method. It counts as ADME, organism-based. The settings on record: in vivo. More on the design: dose 2 mg/kg, route intravenous.
For the next series, the target named is Cytochrome P450 3A4 (Homo sapiens, UniProt P08684). The series is described as follows: Inhibition of CYP3A4 (unknown origin) using Vivid OOMR substrate. It is filed as ADME.
Series [12] has as its system A549. Briefly: Antimigratory activity against human A549 cells assessed as inhibition of cell migration after 8 to 16 hrs by scratch wound model assay.
Series [13] in a line: Volume of distribution at steady state in rat at 2 mg/kg, iv after 24 hrs by LC-ESI-MS/MS method. It counts as ADME, organism-based. The arrangement: dose 2 mg/kg, route intravenous. The settings on record: in vivo, read-out: Vdss.
Series [14] in a line: Half life in rat plasma at 2 mg/kg, iv after 24 hrs by LC-ESI-MS/MS method. It is filed as ADME, organism-based. More on the design: dose 2 mg/kg, route intravenous.
Series [15] can be described thus: Antitumor activity against human HuH7 cells xenografted in iv dosed SCID mouse assessed as inhibition of tumor growth at 5 mg/kg, iv qd for 14 days measured on day 9. The settings on record: Huh-7, iv. For orientation: In xenograft studies the graft and the host belong to different species.
A short description of series [16]: Antitumor activity against human HuH7 cells xenografted in po dosed SCID mouse assessed as inhibition of tumor growth at 2.5 mg/kg, iv qd measured on day 14. It is filed as functional. The note with it: Huh-7, 336 h.

Platelet-derived growth factor receptor beta, sequence (P09619 whole entry): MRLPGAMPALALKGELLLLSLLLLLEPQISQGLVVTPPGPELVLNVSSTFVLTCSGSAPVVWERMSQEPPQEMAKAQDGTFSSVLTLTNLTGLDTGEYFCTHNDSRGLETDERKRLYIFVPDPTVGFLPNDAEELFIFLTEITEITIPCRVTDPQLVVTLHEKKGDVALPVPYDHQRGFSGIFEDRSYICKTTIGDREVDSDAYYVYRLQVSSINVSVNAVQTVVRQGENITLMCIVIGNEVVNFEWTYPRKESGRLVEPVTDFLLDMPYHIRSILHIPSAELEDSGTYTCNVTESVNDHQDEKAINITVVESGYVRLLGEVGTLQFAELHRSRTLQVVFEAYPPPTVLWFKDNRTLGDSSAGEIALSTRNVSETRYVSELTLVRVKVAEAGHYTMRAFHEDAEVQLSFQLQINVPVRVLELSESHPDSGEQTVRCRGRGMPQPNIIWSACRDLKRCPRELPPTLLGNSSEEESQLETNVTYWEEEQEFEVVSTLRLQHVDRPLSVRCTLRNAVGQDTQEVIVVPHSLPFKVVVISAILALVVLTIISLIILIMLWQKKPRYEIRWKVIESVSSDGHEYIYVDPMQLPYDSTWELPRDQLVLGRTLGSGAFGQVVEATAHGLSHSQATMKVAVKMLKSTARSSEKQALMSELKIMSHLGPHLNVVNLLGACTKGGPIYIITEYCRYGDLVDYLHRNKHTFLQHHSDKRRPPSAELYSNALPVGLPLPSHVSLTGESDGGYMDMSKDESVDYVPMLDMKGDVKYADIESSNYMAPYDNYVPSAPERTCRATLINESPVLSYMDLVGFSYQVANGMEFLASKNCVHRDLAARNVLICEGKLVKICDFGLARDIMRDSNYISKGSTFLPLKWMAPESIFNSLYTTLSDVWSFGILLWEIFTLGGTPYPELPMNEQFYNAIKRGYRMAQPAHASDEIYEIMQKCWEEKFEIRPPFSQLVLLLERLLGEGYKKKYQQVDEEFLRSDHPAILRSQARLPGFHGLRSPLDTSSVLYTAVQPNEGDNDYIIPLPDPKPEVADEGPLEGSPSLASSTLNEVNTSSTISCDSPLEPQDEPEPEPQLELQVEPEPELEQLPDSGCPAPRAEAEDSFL
Hepatocyte growth factor receptor, sequence (P08581 whole entry): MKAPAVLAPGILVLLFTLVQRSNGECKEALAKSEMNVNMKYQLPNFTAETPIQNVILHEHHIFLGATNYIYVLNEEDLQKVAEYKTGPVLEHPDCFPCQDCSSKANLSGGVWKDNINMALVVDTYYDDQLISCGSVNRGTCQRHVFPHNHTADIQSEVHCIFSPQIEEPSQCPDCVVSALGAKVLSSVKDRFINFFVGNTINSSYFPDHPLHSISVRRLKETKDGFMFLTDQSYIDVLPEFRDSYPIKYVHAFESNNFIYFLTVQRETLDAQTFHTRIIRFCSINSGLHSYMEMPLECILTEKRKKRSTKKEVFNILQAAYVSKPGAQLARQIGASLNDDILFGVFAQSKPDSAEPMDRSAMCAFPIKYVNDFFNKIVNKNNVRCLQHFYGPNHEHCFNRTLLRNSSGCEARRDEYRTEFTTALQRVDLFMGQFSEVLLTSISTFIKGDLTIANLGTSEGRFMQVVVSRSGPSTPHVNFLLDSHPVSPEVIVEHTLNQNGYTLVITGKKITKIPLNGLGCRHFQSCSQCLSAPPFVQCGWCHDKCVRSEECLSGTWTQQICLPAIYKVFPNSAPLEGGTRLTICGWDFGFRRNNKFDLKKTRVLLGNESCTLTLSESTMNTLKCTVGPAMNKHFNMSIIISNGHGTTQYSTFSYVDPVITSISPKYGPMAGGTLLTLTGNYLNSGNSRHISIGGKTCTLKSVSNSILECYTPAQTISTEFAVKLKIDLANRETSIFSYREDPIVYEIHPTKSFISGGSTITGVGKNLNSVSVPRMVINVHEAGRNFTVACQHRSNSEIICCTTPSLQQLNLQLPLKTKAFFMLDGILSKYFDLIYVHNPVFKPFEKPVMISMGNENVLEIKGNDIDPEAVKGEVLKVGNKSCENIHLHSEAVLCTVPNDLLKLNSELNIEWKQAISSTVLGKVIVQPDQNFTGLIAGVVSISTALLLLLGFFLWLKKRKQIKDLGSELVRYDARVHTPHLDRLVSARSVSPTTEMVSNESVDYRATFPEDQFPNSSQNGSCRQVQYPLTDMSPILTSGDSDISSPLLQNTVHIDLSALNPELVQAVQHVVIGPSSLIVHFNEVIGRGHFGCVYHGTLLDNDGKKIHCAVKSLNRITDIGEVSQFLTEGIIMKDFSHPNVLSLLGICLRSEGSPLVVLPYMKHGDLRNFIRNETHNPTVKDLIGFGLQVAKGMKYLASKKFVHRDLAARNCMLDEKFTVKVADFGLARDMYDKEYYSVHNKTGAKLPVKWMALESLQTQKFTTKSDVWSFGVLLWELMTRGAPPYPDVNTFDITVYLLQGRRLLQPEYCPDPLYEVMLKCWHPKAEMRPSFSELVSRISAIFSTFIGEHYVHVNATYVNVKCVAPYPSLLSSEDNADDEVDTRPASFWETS
Aurora kinase B, sequence (Q96GD4 whole entry): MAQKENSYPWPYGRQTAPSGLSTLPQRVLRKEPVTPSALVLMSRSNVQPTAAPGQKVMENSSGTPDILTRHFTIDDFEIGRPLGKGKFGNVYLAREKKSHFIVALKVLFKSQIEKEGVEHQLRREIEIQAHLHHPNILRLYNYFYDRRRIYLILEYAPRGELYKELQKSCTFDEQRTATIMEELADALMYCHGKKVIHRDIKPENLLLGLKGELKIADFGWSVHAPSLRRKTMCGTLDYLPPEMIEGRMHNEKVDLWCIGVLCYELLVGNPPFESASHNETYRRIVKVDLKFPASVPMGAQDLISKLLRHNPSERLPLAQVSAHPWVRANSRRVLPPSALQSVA

For the compound `COc1ccc(NC(=O)CC(=O)Nc2ccc3c(c2)NC(=O)/C3=C\c2[nH]c(C)c(C(=O)O)c2C)cc1`, the IC50 in series [1] was 6.4 nM; at Aurora kinase C, 154 nM; on Aurora kinase B it was 5.9 nM; in [2], below 1 nM; in series [3], 8.1 nM; at Aurora kinase A, 203 nM. Also, the IC50 is 7800 nM in the series on HepG2, 31.1 nM in series [4] and 5400 nM with A549 [5].
As to `COc1ccc(NC(=O)CC(=O)Nc2ccc3c(c2)NC(=O)/C3=C\c2[nH]c(C)c(C(=O)NCCN3CCCC3)c2C)cc1`, the IC50 in series [1] is 2.1 nM; on Aurora kinase B, 93 nM; in series [6], 20.7 nM; in series [2], below 1 nM; in series [3] it was 1.54 nM; in the series on HepG2, 5100 nM. For the same compound, the values for the IC50 (in series [4]; in the series on A549 [5]) were 10.6 nM and 5400 nM, respectively.
The compound `O=C1Nc2cc(NC(=O)c3c[nH]cc(-c4ccccc4F)c3=O)ccc2/C1=C/c1ccc[nH]1` gave an AUC in the series on Rattus norvegicus of 3660 ng·h/mL. The inhibition in vivo at 2.5 mg/kg in series [7] was found to be 56%; in [16] it was 38%. In addition, the half-maximal inhibitory concentration (IC50) was 3200 nM in the series on A549 [8]; 40 nM on Cytochrome P450 2C9; 3500 nM against Cytochrome P450 2C19; above 10000 nM on Cytochrome P450 3A4; 4100 nM with A549 [12]; 600 nM in the series with HepG2. For the same compound, the 50% inhibitory concentration (IC50) with A549 [5] is 500 nM. The compound further registered a concentration at 5 min in series [9] of 4790 ng/mL. Also, the Activity result in the series with Vero is recorded as “Non-toxic”. This compound also displayed a concentration at 24 h in [10] of 10 ng/mL. The clearance in series [11] is 9.41 mL/min/kg. Moreover, the Vd in [13] came to 9.34 L/kg. The half-life in [14] is 11.8 h. Also, the inhibition in vivo at 5 mg/kg in series [15] worked out at 61%.

One may read the IC50 as the concentration at which inhibition is half-maximal. One may read the AUC as the area under the concentration-time curve, a measure of exposure. By inhibition in vivo is commonly meant the relative decrease from the control value, in per cent. As usually defined, the clearance is a measure of how efficiently the substance is removed, as volume per time. As usually defined, the half-life is the time in which the quantity being followed falls by half.
